Data published in ChEMBL document CHEMBL4342407, “Thieno[2,3-d]pyrimidine as a promising scaffold in medicinal chemistry: Recent advances” (Bioorg Med Chem, 2019).
≈ marks a conversion by molar mass, not a printed value. Each block holds one compound with its values, some of them ahead of it.

Assays:
[1] = test system: Rattus norvegicus; assay: Antiinflammatory activity in Sprague-Dawley rat assessed as inhibition of carrageenan-induced edema at 10 mg/kg, po pretreated for 1 hr followed by carrageenan challenge and measured after 4 hrs by mercury plethysmometer relative to control; type: functional
[2] = test system: Staphylococcus aureus; assay: Antibacterial activity against Staphylococcus aureus ATCC 25923 assessed as diameter of zone inhibition at 30 ug/ml; type: functional; conditions: read-out: DIZ
[3] = test system: Bacillus subtilis; assay: Antibacterial activity against Bacillus subtilis ATCC 6633 assessed as diameter of zone inhibition at 30 ug/ml; type: functional; conditions: read-out: DIZ
[4] = test system: Escherichia coli; assay: Antibacterial activity against Escherichia coli ATCC 25922 assessed as diameter of zone inhibition at 30 ug/ml; type: functional; conditions: read-out: DIZ
[5] = test system: Bacillus subtilis; assay: Antibacterial activity against Bacillus subtilis ATCC 6633 assessed as diameter of zone inhibition at 100 ug/ml; type: functional; conditions: read-out: DIZ
[6] = test system: Staphylococcus aureus; assay: Antibacterial activity against Staphylococcus aureus ATCC 25923 assessed as diameter of zone inhibition at 100 ug/ml; type: functional; conditions: read-out: DIZ
[7] = test system: Escherichia coli; assay: Antibacterial activity against Escherichia coli ATCC 25922 assessed as diameter of zone inhibition at 100 ug/ml; type: functional; conditions: read-out: DIZ
[8] = test system: HCT-116; assay: Antiproliferative activity against human HCT116 after 18 hrs by MTT assay; type: functional, cell-based; conditions: HCT-116, 18 h
[9] = test system: MCF7; assay: Antiproliferative activity against human MCF7 after 18 hrs by MTT assay; type: functional, cell-based; conditions: MCF7, 18 h
[10] = test system: A549; assay: Antiproliferative activity against human A549 after 18 hrs by MTT assay; type: functional, cell-based; conditions: A549, 18 h
[11] = test system: Escherichia coli; assay: Antibacterial activity against Escherichia coli assessed as diameter of zone inhibition at 0.5% incubated for 24 hrs by stiff plate agar diffusion method; type: functional
[12] = test system: Aspergillus niger; assay: Antifungal activity against Aspergillus niger assessed as diameter of zone inhibition at 0.5% incubated for 24 hrs by stiff plate agar diffusion method; type: functional
[13] = test system: HEp-2; assay: Antiproliferative activity against human Hep2 after 24 hrs by MTT assay; type: functional, cell-based; conditions: HEp-2, 24 h
[14] = test system: HeLa; assay: Antiproliferative activity against human HeLa after 24 hrs by MTT assay; type: functional, cell-based
[15] = test system: MCF7; assay: Antiproliferative activity against human MCF7 after 24 hrs by MTT assay; type: functional, cell-based; conditions: MCF7, 24 h
[16] = test system: PC-3; assay: Antiproliferative activity against human PC3 after 24 hrs by MTT assay; type: functional, cell-based; conditions: PC-3, 24 h
[17] = test system: HepG2; assay: Antiproliferative activity against human HepG2 after 24 hrs by MTT assay; type: functional, cell-based; conditions: HepG2, 24 h
[18] = Inhibition of PTK (unknown origin) using poly-Glu-Tyr (PGT) as substrate by ELISA; set-up: species or system Homo sapiens
[19] = test system: Rhodococcus fascians; assay: Antibacterial activity against Mycobacterium luteum assessed as diameter of zone inhibition at 0.5% incubated for 24 hrs by stiff plate agar diffusion method; type: functional, Rhodococcoides fascians
[20] = test system: Staphylococcus aureus; assay: Antibacterial activity against Staphylococcus aureus assessed as diameter of zone inhibition at 0.5% incubated for 24 hrs by stiff plate agar diffusion method; type: functional
[21] = test system: DU-145; assay: Antiproliferative activity against human DU145 after 48 hrs by MTT assay; type: functional; conditions: DU-145, 48 h
[22] = test system: HT-29; assay: Antiproliferative activity against human HT-29 after 48 hrs by MTT assay; type: functional; conditions: HT-29, 48 h
[23] = test system: BT-549; assay: Antiproliferative activity against human BT549 after 48 hrs by MTT assay; type: functional; conditions: BT-549, 48 h
[24] = test system: MCF7; assay: Antiproliferative activity against human MCF7 after 48 hrs by MTT assay; type: functional; conditions: MCF7, 48 h
[25] = test system: HCT-116; assay: Antiproliferative activity against human HCT116 after 48 hrs by MTT assay; type: functional; conditions: HCT-116, 48 h
[26] = test system: A549; assay: Antiproliferative activity against human A549 after 48 hrs by MTT assay; type: functional; conditions: A549, 48 h
[27] = test system: MDA-MB-453; assay: Antiproliferative activity against human MDA-MB-453 after 48 hrs by MTT assay; type: functional; conditions: MDA-MB-453, 48 h
[28] = test system: HCT-15; assay: Antiproliferative activity against human HCT15 after 48 hrs by MTT assay; type: functional; conditions: HCT-15, 48 h
[29] = test system: Aspergillus niger; assay: Antifungal activity against Aspergillus niger assessed as diameter of zone inhibition at 0.1% incubated for 24 hrs by stiff plate agar diffusion method; type: functional
[30] = test system: Aspergillus niger; assay: Antifungal activity against Aspergillus niger incubated for 24 to 72 hrs by Serial dilution method; type: functional
[31] = test system: Candida albicans; assay: Antifungal activity against Candida albicans ATCC 653/885 assessed as diameter of zone inhibition at 30 ug/ml; type: functional; conditions: read-out: DIZ

Compound: COc1ccc2c(c1)c(CC(=O)O)c(C)n2C(=O)c1ccc(Cl)cc1 [INDOMETHACIN]
inhibition in vivo at 10 mg/kg [1]: 49.1%

Compound: CN[C@@H]1[C@H](O[C@H]2[C@H](O[C@H]3[C@H](O)[C@@H](O)[C@H](N=C(N)N)[C@@H](O)[C@@H]3N=C(N)N)O[C@@H](C)[C@]2(O)C=O)O[C@@H](CO)[C@H](O)[C@H]1O [STREPTOMYCIN]
zone of inhibition at 30 µg/mL [2]: 15 mm | zone of inhibition at 30 µg/mL [3]: 17 mm | zone of inhibition at 30 µg/mL [4]: 16 mm

Compound: Cc1c(-c2nnc(-c3ccccc3)o2)sc2c1c(=O)n(-c1ccccc1)c(=O)n2Cc1nc(-c2ccccc2)no1
zone of inhibition at 100 µg/mL [5]: 17 mm | zone of inhibition at 100 µg/mL [6]: 15 mm | zone of inhibition at 100 µg/mL [7]: 14 mm

IC50 [8]: 53.9 µM | IC50 [9]: 13.5 µM | IC50 [10]: 144 µM
Compound: Cc1ccc(-c2cc(COc3ncnc4sc(C)cc34)on2)cc1

Compound: Cc1sc2nc[nH]c(=[Se])c2c1C
diameter of the inhibition zone (DIZ) [11]: 14.7 mm | diameter of the inhibition zone (DIZ) [12]: 12 mm

IC50 [14]: 12.9 µM | IC50 [15]: 17.1 µM | IC50 [16]: 16.4 µM | IC50 [17]: 20.6 µM | IC50 [18]: 203 µM
Compound: COc1cc(/C=C/C(=O)c2sc3nc(S)n(-c4ccccc4)c(=O)c3c2C)cc(OC)c1OC
IC50 [13]: 22.1 µM

IC50 [14]: 4.3 µM | IC50 [15]: 6.84 µM | IC50 [16]: 7.71 µM | IC50 [17]: 7.99 µM | IC50 [18]: 136 µM
Compound: Cc1ccc(/C=C/C(=O)c2sc3nc(S)n(-c4ccccc4)c(=O)c3c2C)cc1
IC50 [13]: 5.4 µM

Compound: CCc1sc2ncnc(SCC(=O)NS(=O)(=O)c3ccc(Cl)cc3)c2c1CC
diameter of the inhibition zone (DIZ) [19]: 17 mm | diameter of the inhibition zone (DIZ) [20]: 12 mm

Compound: Cc1c(-c2nnc(-c3ccccc3)o2)sc2c1c(=O)n(-c1ccccc1)c(=O)n2Cc1nc(-c2ccc(Cl)cc2)no1
zone of inhibition at 100 µg/mL [5]: 17 mm | zone of inhibition at 100 µg/mL [6]: 15 mm | zone of inhibition at 100 µg/mL [7]: 14 mm

GI50 [21]: 9.2 µM | GI50 [22]: > 10 µM | GI50 [23]: 1.3 µM | GI50 [24]: 1.6 µM | GI50 [25]: 10.2 µM | GI50 [26]: 4.3 µM | GI50 [27]: > 10 µM | GI50 [28]: > 10 µM
Compound: O=C(Nc1cccc(Nc2ncnc3sccc23)c1)c1ccc(F)cc1

Compound: CCCCCc1sc2nc[nH]c(=[Se])c2c1CCCCC
diameter of the inhibition zone (DIZ) [29]: 12 mm | MIC [30]: 31.2 µg/mL (≈ 87.8 µM) | diameter of the inhibition zone (DIZ) [11]: 14 mm | diameter of the inhibition zone (DIZ) [12]: 22 mm

Compound: Cc1c(-c2nnc(-c3ccccc3)o2)sc2c1c(=O)n(-c1ccccc1)c(=O)n2Cc1nc(-c2ccccc2Cl)no1
zone of inhibition at 100 µg/mL [5]: 17 mm | zone of inhibition at 100 µg/mL [6]: 15 mm | zone of inhibition at 100 µg/mL [7]: 14 mm

MIC [30]: 31.2 µg/mL (≈ 101 µM)
Compound: CCOC(=O)CSc1ncnc2sc(CC)c(CC)c12

Compound: Cc1ncc([N+](=O)[O-])n1CCO [METRONIDAZOLE]
zone of inhibition at 30 µg/mL [2]: 14 mm | zone of inhibition at 30 µg/mL [3]: 16 mm | zone of inhibition at 30 µg/mL [4]: 14 mm | zone of inhibition at 30 µg/mL [31]: 14 mm
